Source: patent US4341784A, “Naphthyridine derivatives” (priority 1979, dated 1982)

How the values were obtained:
[1] = tested on: Pseudomonas aeruginosa No. 12; test: In vivo efficacy against systemic infections in mice (intraperitoneal infection); design: species or system male mice (ddY); conditions: NO.12, 168 h, po, twice, about 5 minutes and 6 hours after intraperitoneal infection, observed 7 days
Protocol: (§1) Each of the solutions was orally administered to mice infected with each of test organisms under the conditions described below, and the medium effective doses (ED50) obtained are shown in Table II. Male mice (ddY) weighing about 20 g (4) Pseudomonas aeruginosa No. 12: Intraperitoneal infection with about 5×10^3 cells per mouse suspended in trypto-soy broth with 4% mucin. Twice, about 5 minutes and 6 hours after infection. |Escherichia coli P-5101 for 7 days |Pseudomonas aeruginosa No. 12 | The numerals in the table show ED50 (mg/kg). ED50 values were | calculated in accordance with the BehrensKaerber method (Arch. Exp. Path. | Pharm., 162, 480 (1931)). | po: oral administration.

[2] = tested on: Streptococcus pyogenes 65-A; test: as above; design: species or system male mice (ddY); conditions: 168 h, po, twice, about 5 minutes and 6 hours after intraperitoneal infection, observed 7 days
Protocol: as §1, with “(2) Streptococcus pyogenes 65-A:” for “(4) Pseudomonas aeruginosa No. 12:”, “3×10^7” for “5×10^3”, “barin heart infusion broth.” for “trypto-soy broth with 4% mucin.”, “infection. |Streptococcus pyogenes 65-A” for “infection.”, “days” for “days |Pseudomonas aeruginosa No. 12”

[3] = tested on: Gram-positive and Gram-negative bacteria including Pseudomonas aeruginosa; test: In vivo efficacy against systemic infections, overall; design: species or system male mice (ddY); conditions: for therapeutic effect on systemic infections (in words): Gram-positive and Gram-negative bacteria; for therapeutic effect compared with Compound C (in words): systemic infections with Gram-negative bacteria including Pseudomonas aeruginosa
Protocol: Compounds 1, 2 and C were each dissolved in deionized water or suspended in a 0.2% aqueous solution of CMC. Each of the solutions was orally administered to mice infected with each of test organisms under the conditions described below, and the medium effective doses (ED50) obtained are shown in Table II.
Male mice (ddY) weighing about 20 g
Twice, about 5 minutes and 6 hours after infection.

[4] = tested on: Staphylococcus aureus No. 50774; test: In vivo efficacy against systemic infections in mice (intravenous infection); design: species or system male mice (ddY); conditions: NO.50774, 336 h, po, twice, about 5 minutes and 6 hours after intravenous infection, observed 14 days
Protocol: Each of the solutions was orally administered to mice infected with each of test organisms under the conditions described below, and the medium effective doses (ED50) obtained are shown in Table II. Male mice (ddY) weighing about 20 g (1) Staphylococcus aureus No. 50774: Intravenous infection with about 5×10^8 cells per mouse suspended in saline. Twice, about 5 minutes and 6 hours after infection. |Staphylococcus aureus No. 50774 | for 14 days | The numerals in the table show ED50 (mg/kg). ED50 values were | calculated in accordance with the BehrensKaerber method (Arch. Exp. Path. | Pharm., 162, 480 (1931)). | po: oral administration.

[5] = Acute toxicity in intravenous injection

SMILES	ED50 [1] [mg/kg]	ED50 [2] [mg/kg]	therapeutic effect on systemic infections (in words) [3]	therapeutic effect compared with Compound C (in words) [3]	ED50 [4] [mg/kg]	acute toxicity in intravenous injection compared with Compound 1 (in words) [5]
CCn1cc(C(=O)O)c(=O)c2cc(F)c(N3CCC(N)C3)nc21.Cl (centres unmarked) [Compound 1, 7-(3-Amino-1-pyrrolidinyl)-1-ethyl-6-fluoro-1,4-dihydro-4-oxo-1,8-naphthyridine-3-carboxylic acid hydrochloride]	3.7	21	potent therapeutic effects	better therapeutic effects	3	
CCn1cc(C(=O)O)c(=O)c2cc(F)c(N3CCC(NC)C3)nc21.Cl (centres unmarked) [Compound 2, 1-Ethyl-6-fluoro-1,4-dihydro-7-(3-methylamino-1-pyrrolidinyl)-4-oxo-1,8-naphthyridine-3-carboxylic acid hydrochloride]	6.5	42	potent therapeutic effects	better therapeutic effects	4.8	lower acute toxicity in intervenous injection than Compound 1
